# Patent EP0205029A2, “Quinolinecarboxylic acids with an antibacterial activity” (BAYER AG, priority 1985, dated 1986)
# How the values were obtained:
# [1] = mouse protection test (intraperitoneal infection, subcutaneous therapy 30 minutes after infection); format: in vivo, Mäuse; conditions: sc, Infektion intraperitoneal, Therapie 30 Minuten nach Infektion
# Procedure: (§1) Die erfindungsgemäßen Verbindungen zeigen eine ausgezeichnete lokale Verträglichkeit, z. B, nach subkutaner Applikation, im Gegensatz zu den freien Carbonsäuren. Dazu wurden Mäuse über 5 Tage 2 x pro Tag mit 1 bis 10 % Lösungen der Wirkstoffe subkutan behandelt, entsprechend einer Dosis von 100 mg/kg bis 300 mg/kg. Während der Behandlungsperiode sowie nach Absetzen der Behandlung wurden die Tiere beobachtet. Es zeigte sich, daß die Mäuse, die mit den erfindungsgemäßen Verbindungen, z. […] Somit sind die erfindungsgemäßen Verbindungen lokal deutlich besser verträglich als die entsprechenden freien Carbonsäuren und es können Lösungen im oben genannten Konzentrationsbereich bei guter lokaler Verträglichkeit mehrfach angewendet werden. In einem Mäuseprotektionsversuch (Infektion intraperitoneal, Therapie 30 Minuten nach Infektion durch subkutane Gabe) konnte gezeigt werden, daß die Substanzen nach parenteraler Applikation eine gute protektive Wirkung bei erhöhter lokaler Verträglichkeit des Esters besitzen. Die erfindungsgemäßen Verbindungen sind damit in gleicher Dosis protektiv wirksam wie die deutlich schlechter verträglichen freien Carbonsäuren.
# [2] = local tolerability after repeated subcutaneous application; format: in vivo; conditions: Mäuse, subkutan, 5 Tage 2 x pro Tag, 1 bis 10 % Lösungen, 100 mg/kg bis 300 mg/kg
# Procedure: as §1
Compound,ED (80-100) [1] [mg/kg],lokale Verträglichkeit (Merkmale einer lokalen Gewebeschädigung im Bereich der Injektionsstelle) [2]
CCN1CCN(c2cc3c(cc2F)c(=O)c(C(=O)O)cn3C2CC2)CC1 [Substanz A],2.5,–
"CCOC(=O)c1cn(C2CC2)c2cc(N3CCN(CC)CC3)c(F)cc2c1=O [Beispiel 1, 1-Cyclopropyl-6-fluor-7-(4-ethyl-1-piperazinyl)-1,4-dihydro-4-oxo-chinolin-3-carbonsäureethylester]",–,keine Merkmale einer lokalen Gewebeschädigung
CCOC(=O)c1cn(C2CC2)c2cc(N3CCN(CC)CC3)c(F)cc2c1=O [Substanz B],2.5,–
